Results as given in ChEMBL document CHEMBL1201862, “PubChem BioAssay data set” (2004).
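Exposure lasted 48 hours, with cells grown in 96-well plates and compounds tested at five concentrations. GI50 is the concentration that inhibits growth by half.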 Calls of active or inactive are those of the source. Cut-off read from the data, not from the text of the source: active = GI50 up to about 1.1 µM and inactive = higher.

Tests used:
Assay in all cases: NCI-60 cell line screen, 48 h
[1] = tested on: BT-549
[2] = tested on: EKVX
[3] = tested on: HL-60
[4] = tested on: HOP-92
[5] = tested on: HT-29
[6] = tested on: M14
[7] = tested on: MDA-MB-231
[8] = tested on: MDA-MB-435
[9] = tested on: Malme-3M
[10] = tested on: NCI-H23
[11] = tested on: SF-268
[12] = tested on: SF-295
[13] = tested on: SF-539
[14] = tested on: SN12C
[15] = tested on: SNB-19
[16] = tested on: SNB-75
[17] = tested on: UACC-257
[18] = tested on: LOX IMVI
[19] = tested on: MDA-N

COc1cc2cnc(-c3ccccc3)cc2cc1OC
GI50 [1]: 23.2 µM (inactive)
GI50 [2]: 3.22 µM (inactive)
GI50 [3]: 20.3 µM (inactive)
GI50 [4]: 17.5 µM (inactive)
GI50 [5]: 24.9 µM (inactive)
GI50 [6]: 30.7 µM (inactive)
GI50 [7]: 19.1 µM (inactive)
GI50 [8]: 26.9 µM (inactive)
GI50 [9]: 27.9 µM (inactive)
GI50 [10]: 20.9 µM (inactive)
GI50 [11]: 35.7 µM (inactive)
GI50 [12]: 19.5 µM (inactive)
GI50 [13]: 31.1 µM (inactive)
GI50 [14]: 3.5 µM (inactive)
GI50 [15]: 24.9 µM (inactive)
GI50 [16]: 41.1 µM (inactive)
GI50 [17]: 22.8 µM (inactive)

COc1ccc2[nH]c3c([N+](=O)[O-])ccc(NCCN(C)C)c3/c(=N/CCN(C)C)c2c1
GI50 [2]: 2.24 µM (inactive)
GI50 [3]: 1.31 µM (inactive)
GI50 [4]: 5.08 µM (inactive)
GI50 [5]: 1.77 µM (inactive)
GI50 [18]: 1.62 µM (inactive)
GI50 [6]: > 10 µM (inactive)
GI50 [7]: 1.28 µM (inactive)
GI50 [8]: 1.63 µM (inactive)
GI50 [19]: 1.75 µM (inactive)
GI50 [9]: 2.58 µM (inactive)
GI50 [10]: 1.49 µM (inactive)
GI50 [11]: 0.962 µM (active)
GI50 [12]: 1.58 µM (inactive)
GI50 [14]: 1.37 µM (inactive)
GI50 [16]: 1.8 µM (inactive)
GI50 [17]: > 10 µM (inactive)

CC12CCCCC1=[N+]([O-])C(C)(C)N2O (configuration not stated)
GI50 [2]: > 100 µM (inactive)
GI50 [4]: > 100 µM (inactive)
GI50 [5]: > 100 µM (inactive)
GI50 [18]: > 100 µM (inactive)
GI50 [6]: > 100 µM (inactive)
GI50 [7]: > 100 µM (inactive)
GI50 [8]: > 100 µM (inactive)
GI50 [19]: > 100 µM (inactive)
GI50 [9]: > 100 µM (inactive)
GI50 [10]: > 100 µM (inactive)
GI50 [11]: > 100 µM (inactive)
GI50 [12]: > 100 µM (inactive)
GI50 [13]: > 100 µM (inactive)
GI50 [14]: > 100 µM (inactive)
GI50 [15]: > 100 µM (inactive)
GI50 [17]: > 100 µM (inactive)

CCN(CCCl)c1cc(CN(C)C)cc(NC(=O)c2ccc(C(=O)Nc3cccc(CN(C)C)c3)cc2)c1
GI50 [3]: 0.0467 µM (active)
GI50 [4]: 0.512 µM (active)
GI50 [5]: 1.35 µM (inactive)
GI50 [18]: 0.201 µM (active)
GI50 [6]: 4.27 µM (inactive)
GI50 [7]: 28.1 µM (inactive)
GI50 [8]: 0.238 µM (active)
GI50 [19]: 0.29 µM (active)
GI50 [9]: 1.31 µM (inactive)
GI50 [10]: 1.54 µM (inactive)
GI50 [11]: 0.364 µM (active)
GI50 [12]: 1.36 µM (inactive)
GI50 [13]: 0.457 µM (active)
GI50 [14]: 0.357 µM (active)
GI50 [15]: 0.286 µM (active)
GI50 [16]: 0.695 µM (active)
GI50 [17]: 1.83 µM (inactive)

CCCCCCCCCCCCC/C=C/[C@@H](O)[C@H](COC1OC(CO)C(OC2OC(CO)C(O)C(OC3(C(=O)O)CC(O)C(NC(C)=O)C(C(O)C(O)CO)O3)C2O)C(O)C1O)N=[N+]=[N-] (some centres not stated)
GI50 [2]: > 100 µM (inactive)
GI50 [3]: 37.5 µM (inactive)
GI50 [4]: > 100 µM (inactive)
GI50 [5]: 22 µM (inactive)
GI50 [18]: 20.2 µM (inactive)
GI50 [6]: 18.7 µM (inactive)
GI50 [7]: > 100 µM (inactive)
GI50 [8]: > 100 µM (inactive)
GI50 [19]: > 100 µM (inactive)
GI50 [9]: 21.8 µM (inactive)
GI50 [10]: > 100 µM (inactive)
GI50 [11]: 22.2 µM (inactive)
GI50 [12]: 26.4 µM (inactive)
GI50 [13]: 17.5 µM (inactive)
GI50 [14]: > 100 µM (inactive)
GI50 [15]: 34 µM (inactive)
GI50 [16]: 15.9 µM (inactive)
GI50 [17]: 40 µM (inactive)

O=C1NI(C#Cc2ccccc2)c2ccccc21
GI50 [1]: > 100 µM (inactive)
GI50 [3]: > 100 µM (inactive)
GI50 [5]: > 100 µM (inactive)
GI50 [18]: > 100 µM (inactive)
GI50 [6]: > 100 µM (inactive)
GI50 [7]: > 100 µM (inactive)
GI50 [8]: > 100 µM (inactive)
GI50 [19]: > 100 µM (inactive)
GI50 [9]: > 100 µM (inactive)
GI50 [10]: > 100 µM (inactive)
GI50 [11]: > 100 µM (inactive)
GI50 [12]: > 100 µM (inactive)
GI50 [13]: > 100 µM (inactive)
GI50 [14]: > 100 µM (inactive)
GI50 [15]: > 100 µM (inactive)
GI50 [17]: > 100 µM (inactive)

COc1ccc2c(=O)c(-c3cc4c(cc3OC)OCO4)coc2c1
GI50 [1]: > 100 µM (inactive)
GI50 [2]: > 100 µM (inactive)
GI50 [3]: > 100 µM (inactive)
GI50 [4]: 32.9 µM (inactive)
GI50 [5]: > 100 µM (inactive)
GI50 [18]: > 100 µM (inactive)
GI50 [6]: > 100 µM (inactive)
GI50 [7]: 61.5 µM (inactive)
GI50 [10]: > 100 µM (inactive)
GI50 [11]: 72.8 µM (inactive)
GI50 [12]: 37.7 µM (inactive)
GI50 [13]: > 100 µM (inactive)
GI50 [14]: > 100 µM (inactive)
GI50 [15]: 52 µM (inactive)
GI50 [16]: 93.3 µM (inactive)
GI50 [17]: > 100 µM (inactive)

Cc1nn(C(=O)Cc2ccccc2)c2c1C(c1ccccc1O)SC(=N)N2 (configuration not stated)
GI50 [1]: > 100 µM (inactive)
GI50 [2]: > 100 µM (inactive)
GI50 [3]: > 100 µM (inactive)
GI50 [5]: > 100 µM (inactive)
GI50 [18]: > 100 µM (inactive)
GI50 [6]: > 100 µM (inactive)
GI50 [7]: > 100 µM (inactive)
GI50 [8]: > 100 µM (inactive)
GI50 [9]: > 100 µM (inactive)
GI50 [10]: > 100 µM (inactive)
GI50 [11]: > 100 µM (inactive)
GI50 [12]: > 100 µM (inactive)
GI50 [13]: > 100 µM (inactive)
GI50 [14]: > 100 µM (inactive)
GI50 [15]: > 100 µM (inactive)
GI50 [16]: > 100 µM (inactive)
GI50 [17]: > 100 µM (inactive)

CCc1n[nH]c(=O)n1N
GI50 [1]: > 100 µM (inactive)
GI50 [2]: > 100 µM (inactive)
GI50 [3]: > 100 µM (inactive)
GI50 [4]: > 100 µM (inactive)
GI50 [5]: > 100 µM (inactive)
GI50 [18]: > 100 µM (inactive)
GI50 [6]: > 100 µM (inactive)
GI50 [7]: > 100 µM (inactive)
GI50 [8]: > 100 µM (inactive)
GI50 [9]: > 100 µM (inactive)
GI50 [10]: > 100 µM (inactive)
GI50 [11]: > 100 µM (inactive)
GI50 [12]: > 100 µM (inactive)
GI50 [13]: > 100 µM (inactive)
GI50 [14]: > 100 µM (inactive)
GI50 [15]: > 100 µM (inactive)
GI50 [16]: > 100 µM (inactive)
GI50 [17]: > 100 µM (inactive)

O=C(CCc1nnc(S)[nH]1)Nc1cc(Cl)c(Cl)cc1Cl
GI50 [3]: > 100 µM (inactive)
GI50 [4]: > 100 µM (inactive)
GI50 [5]: > 100 µM (inactive)
GI50 [18]: > 100 µM (inactive)
GI50 [6]: > 100 µM (inactive)
GI50 [9]: > 100 µM (inactive)
GI50 [10]: > 100 µM (inactive)
GI50 [11]: > 100 µM (inactive)
GI50 [12]: > 100 µM (inactive)
GI50 [13]: > 100 µM (inactive)
GI50 [14]: > 100 µM (inactive)
GI50 [15]: > 100 µM (inactive)
GI50 [16]: 25.4 µM (inactive)
GI50 [17]: > 100 µM (inactive)

O=c1c2ncn(C3CCCO3)c2n(-c2ccccc2)c(=S)n1-c1ccccc1 (configuration not stated)
GI50 [1]: > 100 µM (inactive)
GI50 [2]: > 100 µM (inactive)
GI50 [3]: > 100 µM (inactive)
GI50 [5]: > 100 µM (inactive)
GI50 [18]: > 100 µM (inactive)
GI50 [6]: > 100 µM (inactive)
GI50 [7]: > 100 µM (inactive)
GI50 [8]: > 100 µM (inactive)
GI50 [10]: > 100 µM (inactive)
GI50 [11]: > 100 µM (inactive)
GI50 [12]: > 100 µM (inactive)
GI50 [13]: > 100 µM (inactive)
GI50 [14]: > 100 µM (inactive)
GI50 [16]: 97.7 µM (inactive)
GI50 [17]: > 100 µM (inactive)

c1ccc(/N=C(/Nc2ccccc2)N2CCCCC2)cc1
GI50 [1]: > 100 µM (inactive)
GI50 [2]: > 100 µM (inactive)
GI50 [3]: 24.7 µM (inactive)
GI50 [4]: 92 µM (inactive)
GI50 [5]: 39.6 µM (inactive)
GI50 [18]: 40.3 µM (inactive)
GI50 [6]: 22.3 µM (inactive)
GI50 [8]: 41.6 µM (inactive)
GI50 [19]: 43.3 µM (inactive)
GI50 [9]: 50.2 µM (inactive)
GI50 [10]: > 100 µM (inactive)
GI50 [11]: > 100 µM (inactive)
GI50 [12]: 54.7 µM (inactive)
GI50 [14]: > 100 µM (inactive)
GI50 [15]: > 100 µM (inactive)
GI50 [16]: 16.7 µM (inactive)
GI50 [17]: 21.6 µM (inactive)
